Laboratory results from patent US10590140B2, “Tetrahydropyrimidodiazepine and dihydropyridodiazepine compounds for treating pain and pain related conditions” (ESTEVE PHARMACEUTICALS, S.A., priority 2016, dated 2020).

Each molecule was assayed against human α2δ-1 subunit of Cav2.2 calcium channel (Homo sapiens (Human), UniProt P54289) (assay: Binding assay to human α2δ-1 subunit of Cav2.2 calcium channel ([3H]-Gabapentin)). Conditions: binding to α2δ-1, [3H]-Gabapentin; read-out: Ki (nM) α2δ-1.
In short: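 [3H]-gabapentin binding, 60 min at 27° C; nonspecific binding defined with 10 μM pregabalin. Terminated by filtration on PEI-presoaked GF/C filters, ice-cold 50 mM Tris-HCl pH 7.4 washes, then scintillation counting.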

Sequence of human α2δ-1 subunit of Cav2.2 calcium channel (P54289 25-1103): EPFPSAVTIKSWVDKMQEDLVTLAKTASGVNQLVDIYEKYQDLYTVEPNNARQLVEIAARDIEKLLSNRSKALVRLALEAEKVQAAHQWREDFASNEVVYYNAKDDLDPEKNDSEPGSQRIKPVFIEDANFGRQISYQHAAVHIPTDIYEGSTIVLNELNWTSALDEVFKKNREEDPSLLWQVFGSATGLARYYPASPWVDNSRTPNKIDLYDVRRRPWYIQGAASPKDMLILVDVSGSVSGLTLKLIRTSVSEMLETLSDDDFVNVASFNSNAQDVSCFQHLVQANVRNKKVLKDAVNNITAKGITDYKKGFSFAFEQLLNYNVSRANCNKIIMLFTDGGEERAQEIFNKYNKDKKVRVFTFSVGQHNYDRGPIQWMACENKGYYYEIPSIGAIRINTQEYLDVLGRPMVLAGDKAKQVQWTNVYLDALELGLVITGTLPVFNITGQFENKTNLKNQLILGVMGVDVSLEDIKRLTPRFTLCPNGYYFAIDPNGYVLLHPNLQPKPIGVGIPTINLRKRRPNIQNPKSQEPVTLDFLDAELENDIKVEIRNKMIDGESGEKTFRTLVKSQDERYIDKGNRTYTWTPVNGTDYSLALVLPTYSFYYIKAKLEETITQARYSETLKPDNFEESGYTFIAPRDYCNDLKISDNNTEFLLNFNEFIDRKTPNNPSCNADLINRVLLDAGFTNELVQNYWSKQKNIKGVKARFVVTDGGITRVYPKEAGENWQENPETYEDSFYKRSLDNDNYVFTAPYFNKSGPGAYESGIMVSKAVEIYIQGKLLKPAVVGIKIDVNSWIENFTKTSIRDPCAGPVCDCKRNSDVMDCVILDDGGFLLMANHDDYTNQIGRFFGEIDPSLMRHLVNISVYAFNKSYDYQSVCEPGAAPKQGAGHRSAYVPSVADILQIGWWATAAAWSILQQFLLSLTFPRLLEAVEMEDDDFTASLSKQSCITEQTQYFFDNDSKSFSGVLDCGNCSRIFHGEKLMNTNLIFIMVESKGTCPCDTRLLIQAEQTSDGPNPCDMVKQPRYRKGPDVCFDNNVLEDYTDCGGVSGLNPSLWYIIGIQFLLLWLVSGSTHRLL

Compound | Ki [nM]
CCNc1ncc2c(n1)N(C)CCN(c1ccccc1COC(CNC)c1ccccc1)C2=O (centres unmarked) [Example 339, 2-(ethylamino)-9-methyl-6-(2-((2-(methylamino)-1-phenylethoxy)methyl)phenyl)-6,7,8,9-tetrahydro-5H-pyrimido[4,5-e][1,4]diazepin-5-one] | > 3000
CNCCC(Oc1ccc(N2CCN(C)c3ncncc3C2=O)cc1)c1ccccc1 (centres unmarked) [Example 361, 9-methyl-6-(4-(3-(methylamino)-1-phenylpropoxy)phenyl)-6,7,8,9-tetrahydro-5H-pyrimido[4,5-e][1,4]diazepin-5-one] | > 3000
CNCC(Oc1ccccc1N1CCN(C)c2ncncc2C1=O)c1ccccc1 (centres unmarked) [Example 362, 9-methyl-6-(2-(2-(methylamino)-1-phenylethoxy)phenyl)-6,7,8,9-tetrahydro-5H-pyrimido[4,5-e][1,4]diazepin-5-one] | > 3000
CNCCC(OCc1ccccc1CN1CCN(C)c2nc(SC)ncc2C1=O)c1ccccc1 (centres unmarked) [Example 365, 9-methyl-6-(2-((3-(methylamino)-1-phenylpropoxy)methyl)benzyl)-2-(methylthio)-6,7,8,9-tetrahydro-5H-pyrimido[4,5-e][1,4]diazepin-5-one] | > 3000
CNCCC(Oc1ccccc1CN1CCN(C)c2nc(SC)ncc2C1=O)c1ccccc1 (centres unmarked) [Example 370, 9-methyl-6-(2-(3-(methylamino)-1-phenylpropoxy)benzyl)-2-(methylthio)-6,7,8,9-tetrahydro-5H-pyrimido[4,5-e][1,4]diazepin-5-one] | > 3000
CNCC(Oc1ccccc1CN1CCN(C)c2nc(SC)ncc2C1=O)c1ccccc1 (centres unmarked) [Example 371, 9-methyl-6-(2-(2-(methylamino)-1-phenylethoxy)benzyl)-2-(methylthio)-6,7,8,9-tetrahydro-5H-pyrimido[4,5-e][1,4]diazepin-5-one] | > 3000
CNCC(OCc1ccccc1CN1CCN(C)c2nc(SC)ncc2C1=O)c1ccccc1 (centres unmarked) [Example 373, 9-methyl-6-(2-((2-(methylamino)-1-phenylethoxy)methyl)benzyl)-2-(methylthio)-6,7,8,9-tetrahydro-5H-pyrimido[4,5-e][1,4]diazepin-5-one] | > 3000
CCNc1ncc2c(n1)N(C)CCN(Cc1ccccc1COC(CCNC)c1ccccc1)C2=O (centres unmarked) [Example 404, 2-(ethylamino)-9-methyl-6-(2-((3-(methylamino)-1-phenylpropoxy)methyl)benzyl)-6,7,8,9-tetrahydro-5H-pyrimido[4,5-e][1,4]diazepin-5-one] | > 3000
CCNc1ncc2c(n1)N(C)CCN(Cc1ccccc1OC(CCNC)c1ccccc1)C2=O (centres unmarked) [Example 409, 2-(ethylamino)-9-methyl-6-(2-(3-(methylamino)-1-phenylpropoxy)benzyl)-6,7,8,9-tetrahydro-5H-pyrimido[4,5-e][1,4]diazepin-5-one] | > 3000
CCNc1ncc2c(n1)N(C)CCN(Cc1ccccc1OC(CNC)c1ccccc1)C2=O (centres unmarked) [Example 410, 2-(ethylamino)-9-methyl-6-(2-(2-(methylamino)-1-phenylethoxy)benzyl)-6,7,8,9-tetrahydro-5H-pyrimido[4,5-e][1,4]diazepin-5-one] | > 3000
CCNc1ncc2c(n1)N(C)CCN(Cc1ccccc1COC(CNC)c1ccccc1)C2=O (centres unmarked) [Example 412, 2-(ethylamino)-9-methyl-6-(2-((2-(methylamino)-1-phenylethoxy)methyl)benzyl)-6,7,8,9-tetrahydro-5H-pyrimido[4,5-e][1,4]diazepin-5-one] | > 3000
CNCCC(OCc1ccccc1CN1CCN(C)c2nc(C)ncc2C1=O)c1ccccc1 (centres unmarked) [Example 421, 2,9-dimethyl-6-(2-((3-(methylamino)-1-phenylpropoxy)methyl)benzyl)-6,7,8,9-tetrahydro-5H-pyrimido[4,5-e][1,4]diazepin-5-one] | > 3000
CNCC(OCc1ccccc1CN1CCN(C)c2nc(C)ncc2C1=O)c1ccccc1 (centres unmarked) [Example 424, 2,9-dimethyl-6-(2-((2-(methylamino)-1-phenylethoxy)methyl)benzyl)-6,7,8,9-tetrahydro-5H-pyrimido[4,5-e][1,4]diazepin-5-one] | > 3000
CNCCC(Oc1cccc(CN2CCN(C)c3ncncc3C2=O)c1)c1ccccc1 (centres unmarked) [Example 429, 9-methyl-6-(3-(3-(methylamino)-1-phenylpropoxy)benzyl)-6,7,8,9-tetrahydro-5H-pyrimido[4,5-e][1,4]diazepin-5-one] | > 3000
CNCCC(Oc1ccccc1CN1CCN(C)c2ncncc2C1=O)c1ccccc1 (centres unmarked) [Example 431, 9-methyl-6-(2-(3-(methylamino)-1-phenylpropoxy)benzyl)-6,7,8,9-tetrahydro-5H-pyrimido[4,5-e][1,4]diazepin-5-one] | > 3000
CNCC(Oc1ccccc1CN1CCN(C)c2ncncc2C1=O)c1ccccc1 (centres unmarked) [Example 432, 9-methyl-6-(2-(2-(methylamino)-1-phenylethoxy)benzyl)-6,7,8,9-tetrahydro-5H-pyrimido[4,5-e][1,4]diazepin-5-one] | > 3000
CCNc1ncc2c(n1)N(C)CCN(c1cccc(CCN3CCC(c4ccccc4)(N(C)C)CC3)c1)C2=O [Example 438, 6-(3-(2-(4-(dimethylamino)-4-phenylpiperidin-1-yl)ethyl)phenyl)-2-(ethylamino)-9-methyl-6,7,8,9-tetrahydro-5H-pyrimido[4,5-e][1,4]diazepin-5-one] | 500 to 3000

Now from value to molecule:

Ki [nM] | Compound
100 to 500 | CCNc1ncc2c(n1)N(C)CCN(c1cccc(COC(CCNCCF)c3cccs3)c1)C2=O (centres unmarked) [Example 345, 2-(ethylamino)-6-(3-((3-((2-fluoroethyl)amino)-1-(thiophen-2-yl)propoxy)methyl)phenyl)-9-methyl-6,7,8,9-tetrahydro-5H-pyrimido[4,5-e][1,4]diazepin-5-one]
500 to 3000 | CNCCC(Oc1ccc(CN2CCN(C)c3nc(OC)ncc3C2=O)cc1)c1ccccc1F (centres unmarked) [Example 376, 6-(4-(1-(2-fluorophenyl)-3-(methylamino)propoxy)benzyl)-2-methoxy-9-methyl-6,7,8,9-tetrahydro-5H-pyrimido[4,5-e][1,4]diazepin-5-one]
500 to 3000 | CNCC[C@H](Oc1ccc(CN2CCN(C)c3ccncc3C2=O)cc1)c1ccccc1 [Example 377, (S)-1-methyl-4-(4-(3-(methylamino)-1-phenylpropoxy)benzyl)-1,2,3,4-tetrahydro-5H-pyrido[4,3-e][1,4]diazepin-5-one]
100 to 500 | CNCCC(Oc1ccc(CN2CCN(C)c3nc(OC)ncc3C2=O)cc1)c1nccs1 (centres unmarked) [Example 390, 2-methoxy-9-methyl-6-(4-(3-(methylamino)-1-(thiazol-2-yl)propoxy)benzyl)-6,7,8,9-tetrahydro-5H-pyrimido[4,5-e][1,4]diazepin-5-one]
100 to 500 | CNCC[C@H](Oc1ccc(CN2CCN(C)c3nc(OC)ncc3C2=O)cc1C)c1cccs1 [Example 393, (S)-2-methoxy-9-methyl-6-(3-methyl-4-(3-(methylamino)-1-(thiophen-2-yl)propoxy)benzyl)-6,7,8,9-tetrahydro-5H-pyrimido[4,5-e][1,4]diazepin-5-one]
100 to 500 | CCN1CCN(Cc2ccc(O[C@@H](CCNC)c3cccs3)cc2)C(=O)c2cnc(OC)nc21 [Example 395]
100 to 500 | CNCCC(Oc1ccc(CN2CCN(C)c3nc(OC)ncc3C2=O)cc1)c1cc(C)cs1 (centres unmarked) [Example 396, 2-methoxy-9-methyl-6-(4-(3-(methylamino)-1-(4-methylthiophen-2-yl)propoxy)benzyl)-6,7,8,9-tetrahydro-5H-pyrimido[4,5-e][1,4]diazepin-5-one]
< 100 | CNCC[C@H](Oc1ccc(CN2CCN(C)c3nc(OC)ncc3C2=O)c(C)c1)c1cccs1 [Example 397, (S)-2-methoxy-9-methyl-6-(2-methyl-4-(3-(methylamino)-1-(thiophen-2-yl)propoxy)benzyl)-6,7,8,9-tetrahydro-5H-pyrimido[4,5-e][1,4]diazepin-5-one]
100 to 500 | CCN1CCN(Cc2ccc(O[C@@H](CCNC)c3cccs3)cc2)C(=O)c2cncnc21 [Example 398, (S)-9-ethyl-6-(4-(3-(methylamino)-1-(thiophen-2-yl)propoxy)benzyl)-6,7,8,9-tetrahydro-5H-pyrimido[4,5-e][1,4]diazepin-5-one]
100 to 500 | CNCC[C@H](Oc1ccc(CN2CCN(C)c3c(F)cncc3C2=O)cc1)c1cccs1 [Example 399, (S)-9-fluoro-1-methyl-4-(4-(3-(methylamino)-1-(thiophen-2-yl)propoxy)benzyl)-1,2,3,4-tetrahydro-5H-pyrido[4,3-e][1,4]diazepin-5-one]
500 to 3000 | CNCC[C@H](Oc1ccc(CN2CCN(C)c3c(Cl)cncc3C2=O)cc1)c1cccs1 [Example 400, (S)-9-chloro-1-methyl-4-(4-(3-(methylamino)-1-(thiophen-2-yl)propoxy)benzyl)-1,2,3,4-tetrahydro-5H-pyrido[4,3-e][1,4]diazepin-5-one]
< 100 | CNCC[C@H](Oc1ccc(CN2CCN(C)c3nc(OC)ncc3C2=O)c(F)c1)c1cccs1 [Example 401, (S)-6-(2-fluoro-4-(3-(methylamino)-1-(thiophen-2-yl)propoxy)benzyl)-2-methoxy-9-methyl-6,7,8,9-tetrahydro-5H-pyrimido[4,5-e][1,4]diazepin-5-one]
100 to 500 | CCNc1ncc2c(n1)N(C)CCN(Cc1cccc(OC(CCNC)c3ccccc3)c1)C2=O (centres unmarked) [Example 407, 2-(ethylamino)-9-methyl-6-(3-(3-(methylamino)-1-phenylpropoxy)benzyl)-6,7,8,9-tetrahydro-5H-pyrimido[4,5-e][1,4]diazepin-5-one]
500 to 3000 | CCNc1ncc2c(n1)N(C)CCN(c1cccc(OCCN3CCCCC3)c1)C2=O [Example 439, 2-(ethylamino)-9-methyl-6-(3-(2-(piperidin-1-yl)ethoxy)phenyl)-6,7,8,9-tetrahydro-5H-pyrimido[4,5-e][1,4]diazepin-5-one]
500 to 3000 | CCNc1ncc2c(n1)N(C)CCN(c1cccc(OCCN3CCOCC3)c1)C2=O [Example 440, 2-(ethylamino)-9-methyl-6-(3-(2-morpholinoethoxy)phenyl)-6,7,8,9-tetrahydro-5H-pyrimido[4,5-e][1,4]diazepin-5-one]
